Assay in all cases: relative viability (nuclei count vs DMSO), 5 days (fraction); higher = more cells survive
Compound in the assay “TPCA-1 + Bortezomib”: C1=CC(=CC=C1C2=CC(=C(S2)NC(=O)N)C(=O)N)F [TPCA-1] + CC(C)C[C@H](NC(=O)[C@H](Cc1ccccc1)NC(=O)c1cnccn1)B(O)O [Bortezomib] (partner 0.002 µM)
A digest of the protocol:
(§1)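 Dosing by pin tool came one day after lung cancer cell lines were seeded in 1536-well plates, using either one drug or a fixed anchor-drug dose plus five library-drug doses (not always all listed) in √10 steps. After 5 days, nuclei were counted on 4× images. Relative viability is treated-well nuclei count divided by vehicle-well nuclei count, and values are medians of duplicate plates.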

Compound in the assay “TPCA-1 + Foretinib”: C1=CC(=CC=C1C2=CC(=C(S2)NC(=O)N)C(=O)N)F [TPCA-1] + COc1cc2c(Oc3ccc(NC(=O)C4(C(=O)Nc5ccc(F)cc5)CC4)cc3F)ccnc2cc1OCCCN1CCOCC1 [Foretinib] (partner 0.25 µM)
A digest of the protocol: as §1

Compound in the assay “TPCA-1 + Lapatinib”: C1=CC(=CC=C1C2=CC(=C(S2)NC(=O)N)C(=O)N)F [TPCA-1] + CS(=O)(=O)CCNCc1ccc(-c2ccc3ncnc(Nc4ccc(OCc5cccc(F)c5)c(Cl)c4)c3c2)o1 [Lapatinib] (partner 2 µM)
A digest of the protocol: as §1

Compound in assay [1]: C1/C(=C\C2=CC=CS2)/C(=O)/C(=C/C3=CC=CS3)/C1 + CC(=O)c1c(C)c2cnc(Nc3ccc(N4CCNCC4)cn3)nc2n(C2CCCC2)c1=O [Palbociclib] (partner 0.5 µM)
The procedure, abridged:
as §1

For the cell line NCI-H1299, the relative viability with TPCA-1 + Bortezomib (first compound 0.04 µM) was 1.02; with TPCA-1 + Bortezomib (first compound 0.1265 µM) it was 0.961; in the assay with TPCA-1 + Bortezomib (first compound 0.4 µM) it was 1.01; with TPCA-1 + Bortezomib (first compound 1.265 µM), 0.981; with TPCA-1 + Bortezomib (first compound 4 µM) it was 1.07; in the assay with TPCA-1 + Foretinib (first compound 0.04 µM) it was 1.07. Besides, the relative viability with TPCA-1 + Foretinib (first compound 0.1265 µM) is 1.07; in the assay with TPCA-1 + Foretinib (first compound 0.4 µM), 1.03; with TPCA-1 + Foretinib (first compound 1.265 µM) it was 1.09; in the assay with TPCA-1 + Foretinib (first compound 4 µM), 1.07; with TPCA-1 + Lapatinib (first compound 0.04 µM) it was 0.962; with TPCA-1 + Lapatinib (first compound 0.1265 µM), 0.979. Moreover, the results for the relative viability with TPCA-1 + Lapatinib (first compound 0.4 µM), with TPCA-1 + Lapatinib (first compound 1.265 µM) and with TPCA-1 + Lapatinib (first compound 4 µM) were 0.95, 0.963 and 0.949, respectively.

With NCI-H1395, the relative viability in assay [1] (first compound 0.2 µM) came to 0.616; in assay [1] (first compound 0.6325 µM) it was 0.683; in assay [1] (first compound 2 µM), 0.612; in assay [1] (first compound 6.325 µM), 0.566; in assay [1] (first compound 20 µM), 0.599; in the assay with TPCA-1 + Foretinib (first compound 0.04 µM) it was 1.05. Also, the relative viability with TPCA-1 + Foretinib (first compound 0.1265 µM) stood at 1.01; in the assay with TPCA-1 + Foretinib (first compound 0.4 µM) it was 0.975; in the assay with TPCA-1 + Foretinib (first compound 1.265 µM) it was 0.96; with TPCA-1 + Foretinib (first compound 4 µM), 0.823; with TPCA-1 + Lapatinib (first compound 0.04 µM), 1.09; with TPCA-1 + Lapatinib (first compound 0.1265 µM), 1.06. Also, the results for the relative viability with TPCA-1 + Lapatinib (first compound 0.4 µM), with TPCA-1 + Lapatinib (first compound 1.265 µM) and with TPCA-1 + Lapatinib (first compound 4 µM) were 1.02, 0.935 and 0.75, respectively.

Consider NCI-H1563, for which the relative viability with TPCA-1 + Bortezomib (first compound 0.04 µM) came to 0.924; with TPCA-1 + Bortezomib (first compound 0.1265 µM), 0.875; with TPCA-1 + Bortezomib (first compound 0.4 µM), 0.836; with TPCA-1 + Bortezomib (first compound 1.265 µM) it was 0.741; with TPCA-1 + Bortezomib (first compound 4 µM) it was 0.793; in the assay with TPCA-1 + Foretinib (first compound 0.04 µM), 1.03. The relative viability in the assay with TPCA-1 + Foretinib (first compound 0.1265 µM) stood at 0.944; with TPCA-1 + Foretinib (first compound 0.4 µM), 0.96; with TPCA-1 + Foretinib (first compound 1.265 µM), 0.991; with TPCA-1 + Foretinib (first compound 4 µM), 1.02; with TPCA-1 + Lapatinib (first compound 0.04 µM) it was 1.08; in the assay with TPCA-1 + Lapatinib (first compound 0.1265 µM), 0.943. The relative viability in the assay with TPCA-1 + Lapatinib (first compound 0.4 µM) worked out at 0.919; with TPCA-1 + Lapatinib (first compound 1.265 µM) it was 0.736; with TPCA-1 + Lapatinib (first compound 4 µM), 0.795.

With NCI-H1623, the relative viability in the assay with TPCA-1 + Foretinib (first compound 0.04 µM) was found to be 0.824; with TPCA-1 + Foretinib (first compound 0.1265 µM), 0.757; with TPCA-1 + Foretinib (first compound 0.4 µM), 0.937; in the assay with TPCA-1 + Foretinib (first compound 1.265 µM) it was 0.973; with TPCA-1 + Foretinib (first compound 4 µM), 0.644.

With NCI-H1648, the relative viability was 0.271 in assay [1] (first compound 0.2 µM); 0.497 in assay [1] (first compound 0.6325 µM); 0.271 in assay [1] (first compound 2 µM); 0.262 in assay [1] (first compound 6.325 µM); 0.288 in assay [1] (first compound 20 µM).

Regarding NCI-H1703, the relative viability with TPCA-1 + Bortezomib (first compound 0.04 µM) was 0.299; in the assay with TPCA-1 + Bortezomib (first compound 0.1265 µM), 0.385; with TPCA-1 + Bortezomib (first compound 0.4 µM) it was 0.394; with TPCA-1 + Bortezomib (first compound 1.265 µM) it was 0.41; with TPCA-1 + Bortezomib (first compound 4 µM), 0.367; with TPCA-1 + Foretinib (first compound 0.04 µM) it was 0.308. Besides, the relative viability was 0.33 in the assay with TPCA-1 + Foretinib (first compound 0.1265 µM); 0.315 with TPCA-1 + Foretinib (first compound 0.4 µM); 0.302 with TPCA-1 + Foretinib (first compound 4 µM); 1.07 with TPCA-1 + Lapatinib (first compound 0.04 µM); 0.902 with TPCA-1 + Lapatinib (first compound 0.1265 µM); 1.18 with TPCA-1 + Lapatinib (first compound 0.4 µM). Moreover, the figures for the relative viability with TPCA-1 + Lapatinib (first compound 1.265 µM) and with TPCA-1 + Lapatinib (first compound 4 µM) were 0.805 and 0.988, respectively.

As for NCI-H1793, the relative viability worked out at 0.343 in assay [1] (first compound 0.2 µM); 0.368 in assay [1] (first compound 0.6325 µM); 0.351 in assay [1] (first compound 2 µM); 0.306 in assay [1] (first compound 6.325 µM); 0.315 in assay [1] (first compound 20 µM); 0.72 with TPCA-1 + Foretinib (first compound 0.04 µM). The relative viability with TPCA-1 + Foretinib (first compound 0.4 µM) is 0.647; with TPCA-1 + Foretinib (first compound 1.265 µM), 0.559; in the assay with TPCA-1 + Foretinib (first compound 4 µM), 0.263; with TPCA-1 + Lapatinib (first compound 0.04 µM), 1.05; with TPCA-1 + Lapatinib (first compound 0.1265 µM), 0.669; with TPCA-1 + Lapatinib (first compound 0.4 µM), 0.837. The relative viability amounted to 0.929 with TPCA-1 + Lapatinib (first compound 1.265 µM) and 0.354 with TPCA-1 + Lapatinib (first compound 4 µM).

Consider NCI-H1944, for which the relative viability was determined as 0.349 in assay [1] (first compound 0.2 µM); 0.371 in assay [1] (first compound 0.6325 µM); 0.349 in assay [1] (first compound 2 µM); 0.317 in assay [1] (first compound 20 µM); 1.04 with TPCA-1 + Foretinib (first compound 0.04 µM); 0.821 with TPCA-1 + Foretinib (first compound 0.1265 µM). In addition, the relative viability with TPCA-1 + Foretinib (first compound 0.4 µM) worked out at 0.869; with TPCA-1 + Foretinib (first compound 1.265 µM), 0.847; with TPCA-1 + Foretinib (first compound 4 µM), 0.488; with TPCA-1 + Lapatinib (first compound 0.04 µM), 0.999; with TPCA-1 + Lapatinib (first compound 0.1265 µM), 0.68; in the assay with TPCA-1 + Lapatinib (first compound 0.4 µM), 0.838. The relative viability with TPCA-1 + Lapatinib (first compound 1.265 µM) came out at 0.7; with TPCA-1 + Lapatinib (first compound 4 µM), 0.682.

In the case of NCI-H2170, the relative viability in assay [1] (first compound 0.2 µM) was determined as 0.386; in assay [1] (first compound 0.6325 µM), 0.382; in assay [1] (first compound 2 µM), 0.376; in assay [1] (first compound 6.325 µM), 0.248; in assay [1] (first compound 20 µM) it was 0.393; with TPCA-1 + Foretinib (first compound 0.04 µM) it was 1.08. The relative viability was determined as 0.985 with TPCA-1 + Foretinib (first compound 0.1265 µM); 0.998 in the assay with TPCA-1 + Foretinib (first compound 0.4 µM); 0.986 with TPCA-1 + Foretinib (first compound 1.265 µM); 0.682 in the assay with TPCA-1 + Foretinib (first compound 4 µM); 0.263 with TPCA-1 + Lapatinib (first compound 0.04 µM); 0.272 in the assay with TPCA-1 + Lapatinib (first compound 0.1265 µM). The relative viability in the assay with TPCA-1 + Lapatinib (first compound 0.4 µM) was found to be 0.261; in the assay with TPCA-1 + Lapatinib (first compound 1.265 µM) it was 0.284; in the assay with TPCA-1 + Lapatinib (first compound 4 µM), 0.248.

Take NCI-H2342: the relative viability in assay [1] (first compound 0.2 µM) was 0.511; in assay [1] (first compound 0.6325 µM), 0.568; in assay [1] (first compound 2 µM), 0.531; in assay [1] (first compound 6.325 µM) it was 0.482; in assay [1] (first compound 20 µM), 0.516; in the assay with TPCA-1 + Foretinib (first compound 0.04 µM), 1.03. The relative viability came to 0.998 with TPCA-1 + Foretinib (first compound 0.1265 µM), 1.15 with TPCA-1 + Foretinib (first compound 0.4 µM), 0.992 with TPCA-1 + Foretinib (first compound 1.265 µM) and 0.962 with TPCA-1 + Foretinib (first compound 4 µM).

Turning to SK-MES-1, the relative viability in assay [1] (first compound 0.2 µM) turned out to be 0.347; in assay [1] (first compound 0.6325 µM), 0.321; in assay [1] (first compound 2 µM), 0.329; in assay [1] (first compound 6.325 µM), 0.311; in assay [1] (first compound 20 µM), 0.292; with TPCA-1 + Foretinib (first compound 0.04 µM), 0.997. In addition, the relative viability turned out to be 0.847 with TPCA-1 + Foretinib (first compound 0.1265 µM); 0.813 with TPCA-1 + Foretinib (first compound 0.4 µM); 0.599 with TPCA-1 + Foretinib (first compound 1.265 µM); 0.609 with TPCA-1 + Foretinib (first compound 4 µM); 0.479 with TPCA-1 + Lapatinib (first compound 0.04 µM); 0.402 in the assay with TPCA-1 + Lapatinib (first compound 0.1265 µM). Moreover, the relative viability with TPCA-1 + Lapatinib (first compound 0.4 µM) turned out to be 0.429; with TPCA-1 + Lapatinib (first compound 1.265 µM), 0.471; with TPCA-1 + Lapatinib (first compound 4 µM), 0.34.

Turning to SW 900, the relative viability in assay [1] (first compound 0.2 µM) is 0.578; in assay [1] (first compound 0.6325 µM) it was 0.524; in assay [1] (first compound 2 µM), 0.616; in assay [1] (first compound 6.325 µM) it was 0.451; in assay [1] (first compound 20 µM), 0.653; with TPCA-1 + Foretinib (first compound 0.04 µM), 0.894. Moreover, the relative viability in the assay with TPCA-1 + Foretinib (first compound 0.1265 µM) came out at 0.71; with TPCA-1 + Foretinib (first compound 0.4 µM) it was 0.841; in the assay with TPCA-1 + Foretinib (first compound 1.265 µM), 0.958; in the assay with TPCA-1 + Foretinib (first compound 4 µM), 0.789.
